Measurements published in ChEMBL document CHEMBL1132208, “Molecular hashkeys: a novel method for molecular characterization and its application for predicting important pharmaceutical properties of molecules” (J Med Chem, 1999).

Test system: Homo sapiens
Experiment: Percent of the drug absorbed after administration to humans was determined
Type: ADME, organism-based
Conditions: in vivo

Row | Compound | Absorption [%]
1 | CCN1CCCC1CNC(=O)c1cc(S(N)(=O)=O)ccc1OC (stereo not drawn) [SULPIRIDE] | 36
2 | NC[C@H]1CC[C@H](C(=O)O)CC1 [TRANEXAMIC ACID] | 55
3 | C=CCc1ccccc1OCC(O)CNC(C)C (stereo not drawn) [ALPRENOLOL] | 96
4 | O=C(O)P(=O)(O)O [FOSCARNET] | 17
5 | CC(C)NCC(O)COc1cccc2[nH]ccc12 (stereo not drawn) [PINDOLOL] | 92
6 | O=C(O)c1cc(/N=N/c2ccc(O)c(C(=O)O)c2)ccc1O [OLSALAZINE] | 2.3
7 | O=C(O)c1cc(/N=N/c2ccc(S(=O)(=O)Nc3ccccn3)cc2)ccc1O [SULFASALAZINE] | 12
8 | OC[C@H]1O[C@@H](O[C@@H]2[C@@H](CO)O[C@](O)(CO)[C@H]2O)[C@H](O)[C@@H](O)[C@H]1O [LACTULOSE] | 0.6
9 | C=CCOc1ccccc1OCC(O)CNC(C)C (stereo not drawn) [OXPRENOLOL] | 97
10 | Cc1ccccc1N1C(=O)c2cc(S(N)(=O)=O)c(Cl)cc2NC1C (stereo not drawn) [METOLAZONE] | 64
11 | Cc1cc(=O)n(-c2ccccc2)n1C [ANTIPYRINE] | 97
12 | OC[C@H]1O[C@H](OC[C@H]2O[C@H](O[C@]3(CO)O[C@H](CO)[C@@H](O)[C@@H]3O)[C@H](O)[C@@H](O)[C@@H]2O)[C@H](O)[C@@H](O)[C@H]1O [RAFFINOSE] | 0.3
13 | OC[C@@H](O)[C@@H](O)[C@H](O)[C@H](O)CO [MANNITOL] | 26
